Entries after “also recorded” stand apart in the source; their conditions may differ. Where a name gives a salt, the structure may show the parent alone. Read-outs that look alike come from different tables or passages of the source.
Columns and labels:
rats = conditions: for AUC0→360 of tail flick latency: each agent alone: morphine 8 mg/kg sc, Mean±S.E.M., n=6; for AUC0→360 of tail flick latency / analgesic effect of the agent alone (tail flick latency): clonidine 1 mg/kg ip; for AUC0→360 of tail flick latency / effect on morphine analgesia in rats treated with BMS182874 / effect on oxycodone analgesia in rats treated with BMS182874 / analgesic effect of the agent alone (tail flick latency): BMS182874 50 μg icv; for AUC0→360 of tail flick latency / effect on oxycodone analgesia in rats treated with BMS182874 / effect on Oxycodone analgesia / effect of antagonist on Clonidine potentiation of Oxycodone analgesia: oxycodone 4 mg/kg sc; for effect on morphine analgesia in rats treated with BMS182874: morphine 4 mg/kg sc; for effect on Morphine analgesia / effect on Oxycodone analgesia: clonidine 1 mg/kg ip or BMS182874 50 μg icv; for effect on Morphine analgesia: morphine 8 mg/kg sc; for effect of antagonist on Clonidine potentiation of Morphine analgesia / effect of antagonist on Clonidine potentiation of Oxycodone analgesia: idazoxan 2 mg/kg ip or yohimbine 2 mg/kg ip given 15 min before clonidine 1 mg/kg ip
μ-opioid receptors = μ-opioid receptors (Homo sapiens, UniProt P35372); conditions: relative to morphine; cited from earlier work
Sequence of μ-opioid receptors (P35372 whole entry): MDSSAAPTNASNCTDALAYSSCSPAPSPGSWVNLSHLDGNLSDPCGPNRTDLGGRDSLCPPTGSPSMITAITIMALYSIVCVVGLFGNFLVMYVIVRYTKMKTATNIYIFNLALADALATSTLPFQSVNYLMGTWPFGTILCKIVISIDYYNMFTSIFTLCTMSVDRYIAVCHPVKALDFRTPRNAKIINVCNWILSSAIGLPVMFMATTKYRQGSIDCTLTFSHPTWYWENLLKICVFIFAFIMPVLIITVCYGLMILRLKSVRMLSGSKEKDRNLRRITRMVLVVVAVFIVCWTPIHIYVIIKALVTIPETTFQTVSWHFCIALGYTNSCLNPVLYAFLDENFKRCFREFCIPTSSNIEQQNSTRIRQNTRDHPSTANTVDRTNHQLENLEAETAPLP

α2-adrenergic receptors = conditions: cited from earlier work
I1-imidazoline receptors = conditions: cited from earlier work
[1] = test system: patients after spinal fusion; conditions: cited from earlier work
goats = conditions: epidural; cited from earlier work
healthy volunteers = conditions: clonidine 0.2 mg p.o., alone or with naloxone; cited from earlier work
Male Swiss Webster mice = assay: Tail-flick latency (antinociception) in mice; conditions: for tail flick latency, fold above vehicle: clonidine 0.3 mg/ml
[2] = test system: patients having coronary artery bypass graft surgery; conditions: cited from earlier work
ETA receptors = molecular target: T1, ETA receptors (Homo sapiens, UniProt P25101); conditions: membrane preparations; read-out: IC50, inhibition of binding of ET-1 to ETA receptors; cited from earlier work
T1 sequence (P25101 21-427): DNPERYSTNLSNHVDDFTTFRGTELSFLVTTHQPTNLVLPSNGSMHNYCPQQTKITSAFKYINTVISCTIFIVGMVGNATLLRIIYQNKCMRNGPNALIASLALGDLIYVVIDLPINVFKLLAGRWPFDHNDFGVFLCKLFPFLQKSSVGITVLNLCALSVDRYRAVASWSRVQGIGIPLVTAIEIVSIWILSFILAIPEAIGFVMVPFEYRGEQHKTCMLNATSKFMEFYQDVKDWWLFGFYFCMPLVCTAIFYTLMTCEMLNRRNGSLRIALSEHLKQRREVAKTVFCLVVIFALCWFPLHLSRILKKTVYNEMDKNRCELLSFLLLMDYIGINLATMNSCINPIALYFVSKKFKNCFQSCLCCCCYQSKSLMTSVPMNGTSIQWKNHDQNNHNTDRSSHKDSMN

ETB receptors = molecular target: T2, ETB receptors (Homo sapiens, UniProt P24530); conditions: membrane preparations; read-out: IC50, inhibition of binding of ET-1 to ETB receptors; cited from earlier work
T2 sequence (P24530 27-442): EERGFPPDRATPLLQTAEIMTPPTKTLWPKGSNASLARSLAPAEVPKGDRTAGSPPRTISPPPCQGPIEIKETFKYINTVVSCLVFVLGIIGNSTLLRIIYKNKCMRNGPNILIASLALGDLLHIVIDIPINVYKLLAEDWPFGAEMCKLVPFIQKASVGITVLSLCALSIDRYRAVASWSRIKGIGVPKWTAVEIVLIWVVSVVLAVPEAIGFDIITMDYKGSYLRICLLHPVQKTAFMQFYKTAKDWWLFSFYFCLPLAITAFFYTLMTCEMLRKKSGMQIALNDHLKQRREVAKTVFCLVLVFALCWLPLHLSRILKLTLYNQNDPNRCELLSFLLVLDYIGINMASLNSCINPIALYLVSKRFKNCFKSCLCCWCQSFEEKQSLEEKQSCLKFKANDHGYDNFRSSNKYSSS

[3] = cited from earlier work
[4] = cited from earlier work; remark: listed apart in the source

COc1ccc2c3c1O[C@H]1C(=O)CC[C@@]4(O)[C@@H](C2)N(C)CC[C@]314.Cl [Oxycodone, 4,5α-epoxy-14-hydroxy-3-methoxy-17-methylmorphinan-6-one hydrochloride]
AUC0→360 of tail flick latency (rats; rats): 18.23±2.32 sec.min | affinity to the μ-opioid receptors, times less than morphine (μ-opioid receptors): > 20 times

Clc1cccc(Cl)c1NC1=NCCN1 [Clonidine, N-(2,6-dichlorophenyl)-4,5-dihydro-1H-imidazol-2-amine]
effect on morphine analgesia in rats treated with BMS182874 (rats; clonidine 0.1 mg/kg ip): did not produce an increase in analgesic effect | effect on oxycodone analgesia in rats treated with BMS182874 (rats; clonidine 0.1 mg/kg ip): did not produce an increase in analgesic effect | effect on morphine analgesia in rats treated with BMS182874 (rats; clonidine 0.3 mg/kg ip): significant (P=0.016 and P=0.011, respectively) increase | effect on oxycodone analgesia in rats treated with BMS182874 (rats; clonidine 0.3 mg/kg ip): significant (P=0.02 and P=0.031, respectively) increase | effect on morphine analgesia in rats treated with BMS182874 (rats; clonidine 1.0 mg/kg ip): significant (P=0.016 and P=0.011, respectively) increase | effect on oxycodone analgesia in rats treated with BMS182874 (rats; clonidine 1.0 mg/kg ip): significant (P=0.02 and P=0.031, respectively) increase | analgesic effect of the agent alone (tail flick latency) (rats; rats): produced significant (P=0.00086) analgesia | effect on Morphine analgesia (rats; rats): significantly potentiated; also recorded: Increase | effect on Oxycodone analgesia (rats; rats): potentiated; also recorded: Increase | AUC0→360 of tail flick latency (rats; rats): 16.62±1.61 sec.min | Ki (α2-adrenergic receptors): 0.0038 µM | Ki (I1-imidazoline receptors): 0.001 µM | pain score (visual analog scale) after clonidine ([1]; clonidine 5 micrograms/kg i.v. in 1st h then 0.3 microgram/kg/h for 11 h, mean±standard error): 26±3 mm | change in mean arterial pressure ([1]; clonidine group at T11): −26±2% | pain score (visual analog scale) before clonidine ([1]; clonidine group, starting value, mean±standard error): 42±5 mm | mean arterial pressure ([1]; clonidine group): 74±2 mmHg | morphine requirement, dose for each patient ([1]; clonidine group, i.m. morphine on demand): 3.8 ± 1 mg | duration of antinociception (goats): 5.5 h | duration of increased subjective and objective pain thresholds (healthy volunteers): at least 4 hours | effect on body temperature (Body temperature in mice; clonidine 0.3, 1.0, 3.0 mg/kg i.p., all doses): decreased body temperature | AUC0→240 min from tail flick latency (Male Swiss Webster mice; Example 3, mice, morphine 4 mg/kg s.c., clonidine 2 mg/kg i.p. 30 min before morphine or vehicle, mean±SEM, N=6): 68.4±12.3 | AUC of tail flick latency compared to control mice (Male Swiss Webster mice; Example 5 study 2, clonidine 2 mg/kg i.p. alone, sulfisoxazole 1000 mg/kg oral alone): produced an increase in AUC | increase in tail flick latency (Male Swiss Webster mice; clonidine 0.3 mg/kg plus CMC, 2 hours post injury): 5 fold | tail flick latency at late time (Male Swiss Webster mice; clonidine 0.3 mg/kg plus CMC, by 6 hours): decreased to approximately the level of vehicle treated animals | tail flick latency, fold above vehicle (Male Swiss Webster mice; at 3 hours): approximately 3 fold | tail flick latency, fold above vehicle (Male Swiss Webster mice; by 5 hours): 2.5 fold | tail flick latency, fold above vehicle (Male Swiss Webster mice; immediately after injury): up to 4 fold | tail flick latency, fold over vehicle (Male Swiss Webster mice; clonidine 1.0 mg/kg i.p., at approximately 6 hours): 3 fold | tail flick latency, fold over vehicle (Male Swiss Webster mice; clonidine 1.0 mg/kg i.p., up to approximately 3 hours): approximately 5 fold | enhancement of the antinociception produced by morphine (Male Swiss Webster mice; clonidine 2 mg/kg i.p. + morphine 4 mg/kg s.c., AUC): 42% | tail flick latency, fold over vehicle (Male Swiss Webster mice; clonidine 3.0 mg/kg i.p., all time points measured): approximately 5 fold

Cc1noc(NS(=O)(=O)c2cccc3c(N(C)C)cccc23)c1C [BMS182874, 5-(dimethylamino)-N-(3,4-dimethyl-5-isoxazolyl)-1-naphthalene sulfonamide]
effect on analgesic activity of clonidine (rats; rats, BMS182874 50 μg icv 15 min before clonidine 1.0 mg/kg ip): did not affect | analgesic effect of the agent alone (tail flick latency) (rats; rats): did not produce any analgesic effect | effect on Morphine analgesia (rats; rats): significantly potentiated; also recorded: Increase | effect on Oxycodone analgesia (rats; rats): potentiated; also recorded: Increase | AUC0→360 of tail flick latency (rats; rats): 4.47±1.49 sec.min | effect on the fall in temperature induced by clonidine (Body temperature in mice; BMS182874 2.0, 10.0, 50.0 μg/kg icv, clonidine 0.3 mg/kg i.p.): did not affect | increase in tail flick latency (Male Swiss Webster mice; BMS182874 10 μg/kg icv + clonidine 0.3 mg/kg i.p., 1 and 2 hours post treatment, compared to vehicle of FIG. 5A): 5 fold | increase in tail flick latency (Male Swiss Webster mice; BMS182874 10 μg/kg icv + clonidine 0.3 mg/kg i.p., 4 hours post treatment): approximately 3 fold | increase in tail flick latency (Male Swiss Webster mice; BMS182874 10 μg/kg icv + clonidine 0.3 mg/kg i.p., by 6 hours post treatment): 2 fold | effect on clonidine analgesia (Male Swiss Webster mice; BMS182874 low and high dose (2.0 and 50.0 μg/kg, icv), clonidine 0.3 mg/kg i.p.): moderately potentiated | effect on the analgesic effect of clonidine (Male Swiss Webster mice; BMS182874 middle dose 10 μg/kg icv, clonidine 0.3 mg/kg i.p.): potentiated

N=C(N)NC(=O)Cc1c(Cl)cccc1Cl [guanfacine]
duration of antinociception (goats): 8 h

c1ccc2c(c1)OCC(C1=NCCN1)O2 (stereo not shown) [Idazoxan, 2-(1,4-benzodioxan-2-yl)-2-imidazoline]
effect of antagonist on Clonidine potentiation of Morphine analgesia (rats; rats): did not affect; also recorded: No effect | effect of antagonist on Clonidine potentiation of Oxycodone analgesia (rats; rats): Blocked | Ki (α2-adrenergic receptors): 0.0036 µM | Ki (I1-imidazoline receptors): 0.186 µM

CN1CC[C@]23c4c5ccc(O)c4O[C@H]2[C@@H](O)C=C[C@H]3[C@H]1C5.O=S(=O)(O)O [Morphine, 7,8-didehydro-4,5α-epoxy-17-methylmorphinan-3,6α-diol sulfate]
morphine dosage in the first 24 h [median (25th-75th percentiles)] ([2]; i.v. morphine group (PCA alone, control)): 37 (30.5-51) mg | time to extubation ([2]; i.v. morphine group): 330 (300-360) min | morphine dosage in the first 24 h [median (25th-75th percentiles)] ([2]; intrathecal morphine group (4 microg/kg plus i.v. PCA morphine)): 40.5 (15-61.5) mg

COC(=O)[C@@H]1[C@H]2C[C@H]3c4[nH]c5ccccc5c4CCN3C[C@@H]2CC[C@@H]1O [Yohimbine, 17α-hydroxy-yohimban-16α-carboxylate hydrochloride]
effect of antagonist on Clonidine potentiation of Morphine analgesia (rats; rats, hydrochloride): Blocked | effect of antagonist on Clonidine potentiation of Oxycodone analgesia (rats; rats, hydrochloride): Blocked | Ki (α2-adrenergic receptors): 0.022 µM | Ki (I1-imidazoline receptors): 21.8 µM

4-amino-N-(3,4-dimethyloxazol-5-yl)-benzenesulfonamide [Sulfisoxazole]
IC50 (ETA receptors): 0.6 µM | IC50 (ETB receptors): 22 µM | solubility [3]: highly soluble | average steady state plasma concentration, mean ([4]; 500 mg oral four times a day, healthy volunteers): 63.4 µg/mL | drug excreted in urine by kidney ([4]; in 24 hours): 95% | binding to plasma proteins ([4]; in vivo): extensively bound to plasma proteins | maximum blood level (adverse reactions more frequent above) ([4]; in vivo): ≤ 200 µg/mL | potentiation of antinociception produced by morphine (Male Swiss Webster mice; sulfisoxazole 500 mg/kg oral + morphine 4 mg/kg s.c., AUC): 14%
